# Source: patent US20110245284A1, “Alkoxy- and Alkylthio-Substituted Anilinopyrimidines” (Bayer CropScience AG, priority 2008, published 2011)
# Key:
# [1] = test system: Sphaerotheca fuliginea; test: Sphaerotheca test (cucumber) / protective; type: in vivo; conditions: Podosphaera fuliginea, 168 h, active compound concentration 500 ppm, evaluation 7 days after inoculation, read-out: efficacy
# Description: The plants are subsequently placed in a greenhouse at 70% relative atmospheric humidity and a temperature of 23° C.
# [2] = test system: Leptosphaeria nodorum; test: Leptosphaeria nodorum test (wheat) / protective; type: in vivo; conditions: Parastagonospora nodorum, active compound concentration 500 ppm, evaluation 7-9 days after inoculation, read-out: efficacy
# Description: Thereafter, the plants are placed in a greenhouse at 90% relative atmospheric humidity and a temperature of 22° C.
# [3] = logP by LC-MS on reversed-phase columns (C 18), method [b], acidic range pH 2.7; type: physicochemical; conditions: for chromatographic logP: pH 2.7, log p
# Description: (§1) The logP values were determined in accordance with EEC Directive 79/831 Annex V.A8 by HPLC (High Performance Liquid Chromatography) on reversed-phase columns (C 18), using the methods below:
# [b] The LC-MS determination in the acidic range is carried out at pH 2.7 using the mobile phases 0.1% aqueous formic acid and acetonitrile (contains 0.1% formic acid), linear gradient from 10% acetonitrile to 95% acetonitrile.
# [4] = logP by LC-MS on reversed-phase columns (C 18), method [c], neutral range pH 7.8; type: physicochemical
# Description: as §1
# [c] The LC-MS determination in the neutral range is carried out at pH 7.8 using the mobile phases 0.001 molar aqueous ammonium bicarbonate solution and acetonitrile, linear gradient from 10% acetonitrile to 95% acetonitrile.
# [5] = method [c], LC-MS, neutral range pH 7.8
# [6] = method [b], LC-MS, acidic range pH 2.7
chromatographic logP [3],chromatographic logP ([4]; pH 7.8),Compound,pest or weed control at 500 ppm [2],other results
1.99,–,COCc1cccc(Nc2ncc(Cl)c(NCC(F)F)n2)c1 [Example 22],≥ 70%,pest or weed control at 500 ppm [1]: ≥ 70%
0.95,–,COC(C)c1cccc(Nc2ncc(Cl)c(NC3CC3C)n2)c1 (stereo not shown) [Example 228],≥ 70%,pest or weed control at 500 ppm [1]: ≥ 70%
1.95,–,COCCOc1cccc(Nc2ncc(Br)c(NC3CC3)n2)c1 [Example 67],≥ 70%,pest or weed control at 500 ppm [1]: ≥ 70%
3.49,3.98,COCCCOC(C)c1cccc(Nc2ncc(C(F)(F)F)c(NC3CC3)n2)c1 (stereo not shown) [Example 254],–,–
2.54,–,COCC(=O)c1cccc(Nc2ncc(C(F)(F)F)c(NC3CC3)n2)c1 [Example 225],≥ 70%,pest or weed control at 500 ppm [1]: ≥ 70%
3.23,4.36,COCc1cccc(Nc2ncc(Cl)c(N(C)C3CC3C)n2)c1 (stereo not shown) [Example 199],≥ 70%,pest or weed control at 500 ppm [1]: ≥ 70%
3.59,5.3,CCSC(C)c1cccc(Nc2ncc(Cl)c(NC3CCC3C)n2)c1 (stereo not shown) [Example 259],–,–
1.72,–,CCCNc1nc(Nc2cccc(COC)c2)ncc1Cl [Example 149],≥ 70%,pest or weed control at 500 ppm [1]: ≥ 70%
3.05,3.61,COCCOC(C)c1cccc(Nc2ncc(C(F)(F)F)c(NC3CC3)n2)c1 (stereo not shown) [Example 257],–,–
2.64,3.23,CC(C)CS(=O)(=O)c1cccc(Nc2ncc(Cl)c(NC3CC3)n2)c1 [Example 161],≥ 70%,–
2,3.26,COCCOC(C)c1cccc(Nc2ncc(Cl)c(NC3CC3)n2)c1 (stereo not shown) [Example 243],–,–
2.08,–,COCc1cccc(Nc2ncc(Cl)c(NCC(C)C)n2)c1 [Example 148],≥ 70%,pest or weed control at 500 ppm [1]: ≥ 70%
3.49,–,CCSCc1cccc(Nc2ncc(Cl)c(NCC(F)(F)F)n2)c1 [Example 32],–,pest or weed control at 500 ppm [1]: ≥ 70%
2.79,–,CCSCc1cccc(Nc2ncc(Br)c(NC3CC3)n2)c1 [Example 218],≥ 70%,pest or weed control at 500 ppm [1]: ≥ 70%
3.09,3.69,CCCCS(=O)(=O)c1cccc(Nc2ncc(Cl)c(NC3CCC3)n2)c1 [Example 170],≥ 70%,–
2.7,3.76,CCOCCSc1cccc(Nc2ncc(Cl)c(NC3CC3)n2)c1 [Example 189],≥ 70%,–
4.9,5.23,CCCSc1cccc(Nc2ncc(C(F)(F)F)c(NC3CC3C)n2)c1 (stereo not shown) [Example 235],≥ 70%,–
4.08,–,CCCSc1cccc(Nc2ncc(Cl)c(NCC(F)(F)F)n2)c1 [Example 30],–,pest or weed control at 500 ppm [1]: ≥ 70%
1.48,2.16,CC[S+]([O-])C(C)c1cccc(Nc2ncc(Cl)c(NC3CC3)n2)c1 (stereo not shown) [Example 74],≥ 70%,–
5.01,5.43,CCCSc1cccc(Nc2ncc(C(F)(F)F)c(NC3CCC3)n2)c1 [Example 155],≥ 70%,–
2.9,3.23,CCC[S+]([O-])c1cccc(Nc2ncc(C(F)(F)F)c(NC3CC3C)n2)c1 (stereo not shown) [Example 246],–,–
2.43,2.99,CCCS(=O)(=O)c1cccc(Nc2ncc(Br)c(NC3CC3)n2)c1 [Example 110],≥ 70%,–
4.9,5.01,CCC(C)Sc1cccc(Nc2ncc(C(F)(F)F)c(NC3CC3)n2)c1 (stereo not shown) [Example 188],≥ 70%,–
3.6,4.12,CCOC(C)c1cccc(Nc2ncc(C(F)(F)F)c(NC3CC3)n2)c1 (stereo not shown) [Example 258],–,–
3.61,4.1,COC(C)c1cccc(Nc2ncc(C(F)(F)F)c(NC3CC3C)n2)c1 (stereo not shown) [Example 229],≥ 70%,–
2.65,3.18,CCCCS(=O)(=O)c1cccc(Nc2ncc(Cl)c(NC3CC3)n2)c1 [Example 123],≥ 70%,–

# More lines, now with the values behind:
Compound,chromatographic logP [3],chromatographic logP ([4]; pH 7.8),pest or weed control at 500 ppm [2],other results
COCc1cccc(Nc2ncc(Br)c(NC3CC3C)n2)c1 (stereo not shown) [Example 84],–,–,–,"log p [4, 5]: 3.59[c];; log p [3, 6]: 2.15[b]"
COC(C)c1cccc(Nc2ncc(Cl)c(NC(C)C3(Cl)CC3)n2)c1 (stereo not shown) [Example 130],–,–,–,log p ([4]; pH 7.8): 4.65[c];; log p ([3]; pH 2.7): 3.72[b]
COC(C)c1cccc(Nc2ncc(Br)c(NC3CC3C)n2)c1 (stereo not shown) [Example 226],–,–,–,"log p [4, 5]: 3.98[c];; log p [3, 6]: 2.5[b]"
COCCOc1ccc(Nc2ncc(C(F)(F)F)c(NC3CC3)n2)cc1F [Example 81],–,–,–,log p ([4]; pH 7.8): 3.27[c];; log p ([3]; pH 2.7): 2.89[b]
COCc1cccc(Nc2ncc(Cl)c(N3CCOCC3)n2)c1 [Example 90],–,–,–,log p ([4]; pH 7.8): 2.87[c];; log p ([3]; pH 2.7): 2.4[b]
CCOC(C)c1cccc(Nc2ncc(Br)c(NC3CC3C)n2)c1 (stereo not shown) [Example 240],–,–,–,"log p [4, 5]: 4.42[c];; log p [3, 6]: 2.89[b]"
CCCC[S+]([O-])c1cccc(Nc2ncc(C(F)(F)F)c(NC3CC3)n2)c1 (stereo not shown) [Example 122],2.94,3.02,–,–
CCS(=O)(=O)C(C)c1cccc(Nc2ncc(Br)c(NC3CC3)n2)c1 (stereo not shown) [Example 154],–,–,–,log p ([4]; pH 7.8): 2.7[c];; log p ([3]; pH 2.7): 1.76[b]
COCc1cccc(Nc2ncc(Cl)c(N3CCCCC3)n2)c1 [Example 89],–,–,–,log p ([4]; pH 7.8): 4.2[c];; log p ([3]; pH 2.7): 3.14[b]
CCCCS(=O)(=O)c1cccc(Nc2ncc(C(F)(F)F)c(NC3CCC3)n2)c1 [Example 202],3.91,4.01,≥ 70%,–
CCOCCOc1ccc(Nc2ncc(Cl)c(NC3CC3)n2)cc1C(F)(F)F [Example 185],2.91,4,–,–
COCCOC(c1cccc(Nc2ncc(C(F)(F)F)c(NC3CC3)n2)c1)C(F)(F)F (stereo not shown) [Example 216],–,–,–,log p ([4]; pH 7.8): 3.9[c];; log p ([3]; pH 2.7): 3.72[b]
COCCOCCOc1ccc(Nc2ncc(C(F)(F)F)c(NC3CC3)n2)cc1C(F)(F)F [Example 182],–,–,–,log p ([4]; pH 7.8): 3.79[c];; log p ([3]; pH 2.7): 3.52[b]
CCCC[S+]([O-])c1cccc(Nc2ncc(Br)c(NC3CCC3)n2)c1 (stereo not shown) [Example 152],–,–,–,log p ([4]; pH 7.8): 3.5[c];; log p ([3]; pH 2.7): 2.67[b]
CC[S+]([O-])c1cccc(Nc2ncc(C(F)(F)F)c(NC3CCC3C)n2)c1 (stereo not shown) [Example 244],2.9,3.3,–,–
CCSc1cccc(Nc2ncc(C(F)(F)F)c(NC3CC(C)C3)n2)c1 (stereo not shown) [Example 234],4.09,5.34,≥ 70%,–
CCCSc1cccc(Nc2ncc(Br)c(NC3CC3C)n2)c1 (stereo not shown) [Example 99],–,–,–,"log p [4, 5]: 5.09[c];; log p [3, 6]: 3.83[b]"
CCCC(C)SC(C)c1cccc(Nc2ncc(Cl)c(NC3CC3)n2)c1 (stereo not shown) [Example 134],–,–,–,log p ([4]; pH 7.8): 5.55[c];; log p ([3]; pH 2.7): 4.24[b]
COCC(C)Oc1ccc(Nc2ncc(C(F)(F)F)c(NC3CC3)n2)cc1 (stereo not shown) [Example 88],–,–,–,log p ([4]; pH 7.8): 3.45[c];; log p ([3]; pH 2.7): 2.71[b]
CCSc1cccc(Nc2ncc(C(F)(F)F)c(NC3CCC3C)n2)c1 (stereo not shown) [Example 233],4.89,5.27,–,–
CCOCCOCCSc1cccc(Nc2ncc(Cl)c(NC3CC3)n2)c1 [Example 180],–,–,–,log p ([4]; pH 7.8): 3.63[c];; log p ([3]; pH 2.7): 2.58[b]
COCC(C)Oc1ccc(Nc2ncc(C(F)(F)F)c(NC3CC3)n2)cc1Cl (stereo not shown) [Example 78],–,–,–,log p ([4]; pH 7.8): 3.99[c];; log p ([3]; pH 2.7): 3.7[b]
CCCCSc1cccc(Nc2ncc(Br)c(NC3CCC3)n2)c1 [Example 104],4.57,5.71,≥ 70%,–
CCCCSc1cccc(Nc2ncc(C(F)(F)F)c(NC3CCC3)n2)c1 [Example 128],5.55,5.78,≥ 70%,–
CCCS(=O)(=O)c1cccc(Nc2ncc(C(F)(F)F)c(NC3CC3C)n2)c1 (stereo not shown) [Example 245],3.43,3.61,–,–
COCCOC(c1cccc(Nc2ncc(Br)c(NC3CC3)n2)c1)C(F)(F)F (stereo not shown) [Example 217],–,–,–,log p ([4]; pH 7.8): 3.76[c];; log p ([3]; pH 2.7): 2.85[b]
CSC(C)c1cccc(Nc2ncc(C(F)(F)F)c(NC3CCC3)n2)c1 (stereo not shown) [Example 18],4.34,–,≥ 70%,pest or weed control at 500 ppm [1]: ≥ 70%
COCCOC(c1cccc(Nc2ncc(Cl)c(NC3CC3)n2)c1)C(F)(F)F (stereo not shown) [Example 215],–,–,–,log p ([4]; pH 7.8): 3.61[c];; log p ([3]; pH 2.7): 2.63[b]
CCN(c1nc(Nc2cccc(COC)c2)ncc1Cl)C1CC1 [Example 137],–,–,–,log p ([4]; pH 7.8): 4.23[c];; log p ([3]; pH 2.7): 3.24[b]
CC[S+]([O-])c1cccc(Nc2ncc(C(F)(F)F)c(NC3CC(C)C3)n2)c1 (stereo not shown) [Example 242],2.98,3.32,–,–
